Data reported in patent US8673914B2, “Use of phosphodiesterase inhibitors for treating multidrug resistance” (St. John's University, priority 2011, dated 2014).
Marks after values point to notes of the source that are not given here.

Legend:
KB-C2 (ABCB1) = assay: MTT cytotoxicity/reversal assay (Example 1); type: cell-based, human
Experimental: (§1) The KB-C2 and KB-3-1 were kindly provided by Dr. Akiyama (Kagoshima University, Japan). HEK293-pcDNA3.1 and wild-type HEK/ABCG2 transfected cells were established by selection with G418 after transfecting HEK293 with either (1) empty pcDNA3.1 vector or (2) pcDNA3.1 vector containing full length of ABCG2 coding arginine (R) at amino acid position 482, and were then cultured in a medium with 2 mg/ml of G418 (ABCG2-482-R2 cells). Similarly, the HEK/MRP1 (ABCC1) and HEK/ABCB1 cells were generated by transfecting the HEK293 cells with either the MRP1 expression vector or the ABCB1 expression vector. All of the cell lines were grown in Dulbecco's modified Eagle's medium (DMEM) supplemented with 10% bovine serum, 100 units/ml penicillin, and […] streptomycin in a humidified incubator containing 5% CO2 at 37° C.
(§2) The MTT assay was used to assess cytotoxicity. The cultured cells were harvested with trypsin and resuspended in a final concentration of 4×10^3 cells/well for KB-3-1; 7.5×10^3 cells/well for KB-C2; and 8×10^3 for all of the other cell lines used in this study. Cells were seeded evenly in 96-well multiplates. […] After 68 h of incubation, 20 μl of the MTT solution (4 mg/ml) was added to each well, and the plate was further incubated for 4 h at 37° C., allowing viable cells to convert the yellow-colored MTT into dark-blue formazan crystals. Subsequently, the medium was discarded, and 100 μl of DMSO was added into each well to dissolve the formazan crystals, generating purple color. The absorbance was determined at 570 nm by an OPSYS Microplate Reader from DYNEX Technologies, Inc. (Chantilly, Va.). […] The degree of the reversal of multidrug resistance (MDR) was calculated by dividing the IC50 of an anticancer drug, e.g., an antineoplastic or chemotherapeutic drug (agent, compound), in a cell type in the absence of a reversal agent by the IC50 of the anticancer drug in the same cell type in the presence of the reversal agent. The IC50 values were calculated from survival curves using the Bliss method.

KB-3-1 = assay: MTT cytotoxicity/reversal assay (Example 1); type: cell-based, human
Experimental: as §1, §2

HEK/MRP7 cells [1] = assay: [^3H]-paclitaxel efflux (Example 4); type: cell-based; settings: for accumulated [^3H]-paclitaxel remaining in cells: absence of PDE5 inhibitors; for percentage of intracellular [^3H]-paclitaxel: 5 μM PDE5 inhibitor
Experimental: (§3) The effect of PDE5 inhibitors on the intracellular accumulation of paclitaxel in HEK293-pcDNA3.1 and HEK/MRP7 cells was measured using [^3H]-paclitaxel. […] For efflux studies, the cells were treated the same as in the drug accumulation study, and then washed three times with ice-cold PBS, and suspended in fresh medium with or without PDE5 inhibitors. Aliquots were evenly collected at various time points (0, 30, 60, and 120 min). Samples from both accumulation and efflux experiments were washed with ice-cold PBS three times and placed in scintillation fluid, and the radioactivity was measured in a Packard TRI-CARB® 1900CA liquid scintillation analyzer from Packard Instrument Company, Inc. (Downers Grove, Ill.).

KB-C2 cells (ABCB1) = assay: [^3H]-paclitaxel accumulation (Example 1); type: cell-based, human
Experimental: The intracellular accumulation of [^3H]-paclitaxel was measured as follows. […] Intracellular paclitaxel accumulation was measured by incubating cells with 0.1 μM [^3H]-paclitaxel for 2 h in the presence or absence of the reversal agents at 37° C. The cells were washed three times with ice-cold PBS, then suspended in fresh medium with or without reversal agents at 37° C. Aliquots of the extracellular medium (40 μl) were collected at various time points (0, 60, 120 min), and finally the cells were collected and lysed in 10 mM lysis buffer (pH 7.4, containing 1% Triton X-100 and 0.2% SDS). Each sample was placed in scintillation fluid and the radioactivity was measured in a Packard TRI-CARB1 1900CA liquid scintillation analyzer from Packard Instrument Company, Inc. (Downers Grove, Ill.).

HEK/MRP7 = assay: MTT cytotoxicity assay (Example 4); type: cell-based;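 note: drug IC50 in HEK/MRP7 divided by IC50 in parental HEK293-pcDNA3.1 cells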
Experimental: (§4) The MRP7 cDNA was generously provided by Dr. Gary Kruh (University of Illinois, Chicago, Ill.) and inserted into the pcDNA3.1 expression vector. […] Individual colonies were selected in medium containing G418 (1 mg/ml) and cultured for further analysis.
(§5) MTT colorimetric assay was performed to analyze the drug sensitivity as previously described (Shi et al. (2007) Cancer Res. 67:11012-20). HEK293-pcDNA3.1 and HEK/MRP7 cells were seeded into 96-well plates in triplicate at 6000 cells/well.
(§6) After drug incubation of 68 h, 20 μl MTT solution (4 mg/ml) was added into each well. […] The Bliss method was used to calculate the IC50 values according to survival curves.

HEK 293-pcDNA-3.1 = assay: MTT cytotoxicity assay (Example 4); type: cell-based
Experimental: as §4, §5, §6

HEK/MRP7 cells [2] = assay: [^3H]-paclitaxel accumulation (Example 4); type: cell-based
Experimental: as §3

HEK293/pcDNA3.1 = assay: MTT cytotoxicity/reversal assay (Example 1); type: cell-based
Summary of the method: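 KB-3-1, ABCB1-overexpressing KB-C2, and HEK293 transfected with empty pcDNA3.1 or ABCG2 (R482) vector. MTT read at 570 nm after 68 h drug exposure plus 4 h MTT at 37 °C. IC50 from survival curves by Bliss method; fold-reversal = IC50 without reversal agent divided by IC50 with it.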

HEK/ABCB1 (ABCB1) = assay: MTT cytotoxicity/reversal assay (Example 1); settings: HEK/ABCB1
Experimental: The KB-C2 and KB-3-1 were kindly provided by Dr. Akiyama (Kagoshima University, Japan). […] Similarly, the HEK/MRP1 (ABCC1) and HEK/ABCB1 cells were generated by transfecting the HEK293 cells with either the MRP1 expression vector or the ABCB1 expression vector. All of the cell lines were grown in Dulbecco's modified Eagle's medium (DMEM) supplemented with 10% bovine serum, 100 units/ml penicillin, and […] streptomycin in a humidified incubator containing 5% CO2 at 37° C.
as §2

[3] = HEK 293-pcDNA-3.1, +1.25 μM reversal agent
[4] = HEK 293-pcDNA-3.1, +5 μM reversal agent
[5] = HEK293/pcDNA3.1, +5 μM reversal agent
[6] = HEK293/pcDNA3.1, +10 μM reversal agent

## CC(=O)O[C@H]1C(=O)[C@@]2(C)[C@H]([C@H](OC(=O)c3ccccc3)[C@]3(O)C[C@H](OC(=O)[C@H](O)[C@@H](NC(=O)c4ccccc4)c4ccccc4)C(C)=C1C3(C)C)[C@]1(OC(C)=O)CO[C@@H]1C[C@@H]2O [Paclitaxel, paclitaxel]
KB-C2 (ABCB1); alone
  fold reversal, paclitaxel: (1.00)
KB-3-1; alone
  fold reversal, paclitaxel: (1.00)
HEK/MRP7 cells [1]; 30 min
  accumulated [^3H]-paclitaxel remaining in cells: 62.43%
HEK/MRP7 cells [1]; 60 min
  accumulated [^3H]-paclitaxel remaining in cells: 39.47%
HEK/MRP7 cells [1]; 120 min
  accumulated [^3H]-paclitaxel remaining in cells: 23.44%
KB-C2 cells (ABCB1); no reversal agent
  intracellular concentration of paclitaxel relative to parental KB-3-1 cells: approximately 55%
HEK/MRP7; alone
  fold-resistance, paclitaxel: (9.21)
HEK 293-pcDNA-3.1; HEK 293-pcDNA-3.1, alone
  fold-resistance, paclitaxel: (1.0)^b
HEK 293-pcDNA-3.1; read-out: IC50 of paclitaxel
  IC50: 11.6 ± 1.33 nM
HEK/MRP7 cells [2]; no inhibitor
  intracellular concentration of [^3H]-paclitaxel relative to parental HEK293-pcDNA3.1: 28.5%
HEK293/pcDNA3.1; HEK293/pcDNA3.1, alone
  fold reversal, paclitaxel: (1.00)
HEK/ABCB1 (ABCB1); alone
  fold reversal, paclitaxel: (1.00)

## CN1CC(=O)N2[C@H](c3ccc4c(c3)OCO4)c3[nH]c4ccccc4c3C[C@@H]2C1=O [Tadalafil, tadalafil]
KB-C2 (ABCB1); +5 μM reversal agent
  fold reversal, cisplatin: (1.01)
  fold reversal, colchicine: (4.19)
  fold reversal, paclitaxel: (2.53)
KB-C2 (ABCB1); +10 μM reversal agent
  fold reversal, cisplatin: (0.93)
  fold reversal, colchicine: (6.38)
  fold reversal, paclitaxel: (4.48)
KB-3-1; +5 μM reversal agent
  fold reversal, cisplatin: (0.96)
  fold reversal, colchicine: (0.86)
  fold reversal, paclitaxel: (0.93)
KB-3-1; +10 μM reversal agent
  fold reversal, cisplatin: (1.06)
  fold reversal, colchicine: (0.89)
  fold reversal, paclitaxel: (1.02)
HEK/MRP7 cells [1]; 30 min
  percentage of intracellular [^3H]-paclitaxel: 76.44%
HEK/MRP7 cells [1]; 60 min
  percentage of intracellular [^3H]-paclitaxel: 63.41%
HEK/MRP7 cells [1]; 120 min
  percentage of intracellular [^3H]-paclitaxel: 46.48%
KB-C2 cells (ABCB1); 10 μM
  effect on paclitaxel accumulation: had significant effects on paclitaxel accumulation
HEK/MRP7; +1.25 μM reversal agent
  fold-resistance, docetaxel: (10.91)
  fold-resistance, paclitaxel: (8.06)
  fold-resistance, vinblastine: (4.58)
HEK/MRP7; +5 μM reversal agent
  fold-resistance, cisplatin: (1.12)
  fold-resistance, docetaxel: (8.35)
  fold-resistance, paclitaxel: (5.87)
  fold-resistance, vinblastine: (3.62)
HEK 293-pcDNA-3.1; [3]
  fold-resistance, docetaxel: (1.09)
  fold-resistance, paclitaxel: (1.07)
  fold-resistance, vinblastine: (1.06)
HEK 293-pcDNA-3.1; [4]
  fold-resistance, cisplatin: (1.11)
  fold-resistance, docetaxel: (1.02)
  fold-resistance, paclitaxel: (0.93)
  fold-resistance, vinblastine: (0.95)
HEK/MRP7 cells [2]; 5 μM, 2 h
  increase of intracellular accumulation of [^3H]-paclitaxel: 2.1 fold
HEK293/pcDNA3.1; HEK293/pcDNA3.1 (Table 6), +10 μM reversal agent
  fold reversal, vincristine: (1.09)
HEK293/pcDNA3.1; [5]
  fold reversal, cisplatin: (0.99)
  fold reversal, paclitaxel: (0.99)
  fold reversal, vincristine: (1.15)
HEK293/pcDNA3.1; [6]
  fold reversal, SN-38: (0.96)
  fold reversal, cisplatin: (1.12)
  fold reversal, paclitaxel: (1.21)
  fold reversal, vincristine: (1.35)
HEK/ABCB1 (ABCB1); +5 μM reversal agent
  fold reversal, cisplatin: (0.94)
  fold reversal, paclitaxel: (1.37)
  fold reversal, vincristine: (1.50)
HEK/ABCB1 (ABCB1); +10 μM reversal agent
  fold reversal, cisplatin: (1.09)
  fold reversal, paclitaxel: (2.26)
  fold reversal, vincristine: (2.45)
